Assay [1] relates to IPOHE (Ipomoea hederacea, ivyleaf morningglory). As to the kind of experiment: Postemergence foliar-applied weed control, direct seeded rice, greenhouse (Example I). The assay is classed as in vivo, Ipomoea hederacea Jacq. From the text: (§1) Seeds or nutlets of the desired test plant species were planted in a soil matrix prepared by mixing a loam or sandy loam soil (e.g., 28.6 percent silt, 18.8 percent clay, and 52.6 percent sand, with a pH of about 5.8 and an organic matter content of about 1.8 percent) and calcareous grit in an 80 to 20 ratio. The soil matrix was contained in plastic pots with a volume of 1 quart and a surface area of 83.6 square centimeters (cm^2). When required to ensure good germination and healthy plants, a fungicide treatment and/or other chemical or physical treatment was applied. The plants were grown for 8-22 days in a greenhouse with an approximate 14 h photoperiod which was maintained at about 29° C. during the day and 26° C. during the night. Nutrients (Peters Excel® 15-5-15 5-Ca 2-Mg and iron chelate) were applied in the irrigation solution as needed and water was added on a regular basis. Supplemental lighting was provided with overhead metal halide 1000-Watt lamps as necessary. The plants were employed for testing when they reached the first through fourth true leaf stage.
Treatments consisted of the acid or esters of 4-amino-3-chloro-5-fluoro-6-(4-chloro-2-fluoro-3-methoxy-phenyl)pyridine-2-carboxylic acid (Compound A), each formulated as an SC, and various herbicidal components alone and in combination. Forms of compound A were applied on an acid equivalent basis.
Other herbicidal components were applied on an active ingredient basis and included acetolactate synthase (ALS)-inhibiting herbicides (sulfonylurea chemical class) azimsulfuron formulated as Gulliver®, bensulfuron-methyl formulated as Londax® 60DF, cyclosulfamuron (technical material), ethoxysulfuron formulated as Sunrice® 15 WDG, flazasulfuron formulated as Katana®, flucetosulfuron formulated as Sukedachi® 1KG G, foramsulfuron formulated as Option®, imazosulfuron formulated as Brazzos® WG, iodosulfuron-methyl-sodium formulated as Hussar®, metsulfuron-methyl formulated as Lorate®, nicosulfuron formulated as Accent®, orthosulfamuron formulated as Strada® WG, primisulfuron-methyl (technical material), propyrisulfuron formulated as Zeta One®, rimsulfuron formulated as Matrix® WG, sulfometuron-methyl formulated as Oust®, and trifloxysulfuron-sodium formulated as Monument® 75WG.
(§2) Treatment requirements were calculated based upon the rates being tested, the concentration of active ingredient or acid equivalent in the formulation, and a 12 mL application volume at a rate of 187 L/ha.
For treatments comprised of formulated compounds, measured amounts of compounds were placed individually in 25 mL glass vials and diluted in a volume of 1.25% (v/v) Agri-Dex® crop oil concentrated to obtain 12× stock solutions. […] Application solutions were prepared by adding an appropriate amount of each stock solution (e.g., 1 mL) and diluted to the appropriate final concentrations with the addition of 10 mL of an aqueous mixture of 1.25% (v/v) crop oil concentrate so that the final spray solutions contained 1.25+/−0.05% (v/v) Agrcrop oil concentrate.
For treatments comprised of formulated and technical compounds, weighed amounts of the technical materials were placed individually in 25 mL glass vials and dissolved in a volume of 97:3 v/v acetone/DMSO to obtain 12× stock solutions, and measured amounts of the formulated compounds were placed individually in 25 mL glass vials and diluted in a volume of 1.25% (v/v) crop oil concentrate to obtain 12× stock solutions. […] Application solutions were prepared by adding an appropriate amount of each stock solution (e.g., 1 mL) and diluted to the appropriate final concentrations with the addition of an appropriate amount of an aqueous mixture of 1.5% (v/v) crop oil concentrate so that the final spray solutions contained 1.25% (v/v) crop oil concentrate. […]

For assay [2], the system named is MATCH (Chamomilla chamomilla, scented mayweed). The assay can be described thus: Post-emergence foliar-applied weed control in cereal crops, greenhouse (Example III). The assay is classed as in vivo, Chamomilla chamomilla (L.) Rydb. Here is the method: Seeds of the desired test plant species were planted in Sun Gro MetroMix® 306 planting mixture, which typically has a pH of 6.0 to 6.8 and an organic matter content of about 30 percent, in plastic pots with a surface area of 103.2 square centimeters (cm^2). When required to ensure good germination and healthy plants, a fungicide treatment and/or other chemical or physical treatment was applied. The plants were grown for 7-36 days in a greenhouse with an approximate 14 hour photoperiod which was maintained at about 18° C. during the day and 17° C. during the night. Nutrients and water were added on a regular basis and supplemental lighting was provided with overhead metal halide 1000-Watt lamps as necessary. The plants were employed for testing when they reached the second or third true leaf stage.
Treatments consisted of the benzyl ester of 4-amino-3-chloro-5-fluoro-6-(4-chloro-2-fluoro-3-methoxy-phenyl)pyridine-2-carboxylic acid (Compound A), formulated as an SC (suspension concentrate), and a second cereal herbicide alone and in combination.
Measured aliquot of benzyl ester of 4-amino-3-chloro-5-fluoro-6-(4-chloro-2-fluoro-3-methoxy-phenyl)pyridine-2-carboxylic acid (Compound A) was placed in 25 milliliter (mL) glass vials and diluted in a volume of 1.25% (v/v) Agri-dex crop oil concentrated to obtain stock solutions. Compound requirements are based upon a 12 mL application volume at a rate of 187 liters per hectare (L/ha). Spray solutions of the second cereal herbicide and experimental compound mixtures were prepared by adding the stock solutions to the appropriate amount of dilution solution to form 12 mL spray solution with active ingredients in two- and three-way combinations. Formulated compounds were applied to the plant material with an overhead Mandel track sprayer equipped with an 8002E nozzle calibrated to deliver 187 L/ha over an application area of 0.503 square meters (m^2) at a spray height of 18 inches (46 cm) above average plant canopy. Control plants were sprayed in the same manner with the solvent blank.
The treated plants and control plants were placed in a greenhouse as described above and watered by sub-irrigation to prevent wash-off of the test compounds. After 20-22 days, the condition of the test plants as compared with that of the control plants was determined visually and scored on a scale of 0 to 100 percent where 0 corresponds to no injury and 100 corresponds to complete kill.
Colby's equation was used to determine the herbicidal effects expected from the mixtures (Colby, S. R. 1967. Calculation of the synergistic and antagonistic response of herbicide combinations. Weeds 15:20-22.).
The following equation was used to calculate the expected activity of mixtures containing two active ingredients, A and B: Expected=A+B−(A×B/100)

Assay [3] relates to SCPJU (Schoenoplectus juncoides, Japanese bulrush). The assay can be described thus: Postemergence foliar-applied weed control, direct seeded rice, greenhouse (Example I). The assay is classed as in vivo, Schoenoplectus juncoides (Roxb.) Palla. Conditions: 21 DAA.
Text: as §1
Treatments consisted of the acid or esters of 4-amino-3-chloro-5-fluoro-6-(4-chloro-2-fluoro-3-methoxy-phenyl)pyridine-2-carboxylic acid (Compound A), each formulated as an SC, and various herbicidal components alone and in combination. Forms of compound A were applied on an acid equivalent basis. […]
as §2
For treatments comprised of formulated compounds, measured amounts of compounds were placed individually in 25 mL glass vials and diluted in a volume of 1.25% (v/v) Agri-Dex® crop oil concentrated to obtain 12× stock solutions. […]
For treatments comprised of formulated and technical compounds, weighed amounts of the technical materials were placed individually in 25 mL glass vials and dissolved in a volume of 97:3 v/v acetone/DMSO to obtain 12× stock solutions, and measured amounts of the formulated compounds were placed individually in 25 mL glass vials and diluted in a volume of 1.25% (v/v) crop oil concentrate to obtain 12× stock solutions. […]

Consider `COc1c(Cl)ccc(-c2nc(C(=O)O)c(Cl)c(N)c2F)c1F` [Compound A Acid, 4-amino-3-chloro-5-fluoro-6-(4-chloro-2-fluoro-3-methoxy-phenyl)pyridine-2-carboxylic acid], for which the “Visual Weed Control (%) Obs” value turned out to be 0% in assay [1] (20 DAA, 5.3 gae/ha); 15% in assay [1] (20 DAA, 10.6 gae/ha); 25% in assay [1] (20 DAA, 21.2 gae/ha); 25% in assay [1] (21 DAA, 4.38 gae/ha); 30% in assay [1] (21 DAA, 8.75 gae/ha); 45% in assay [1] (21 DAA, 17.5 gae/ha). In addition, the “Visual Weed Control (%) Obs” value in assay [1] (22 DAA, 8 gae/ha) stood at 25%; in assay [1] (22 DAA, 16 gae/ha) it was 35%; in assay [1] (22 DAA, 32 gae/ha) it was 40%.
For the compound `COc1c(Cl)ccc(-c2nc(C(=O)OCc3ccccc3)c(Cl)c(N)c2F)c1F` [Compound A Benzyl Ester], the “Visual Weed Control (%) Obs” value came out at 10% in assay [1] (20 DAA, 4.38 gae/ha); 10% in assay [1] (20 DAA, 8.75 gae/ha); 25% in assay [1] (20 DAA, 17.5 gae/ha); 0% in assay [1] (21 DAA, 4.38 gae/ha); 10% in assay [1] (21 DAA, 8 gae/ha); 10% in assay [1] (21 DAA, 8.75 gae/ha). Moreover, the “Visual Weed Control (%) Obs” value is 10% in assay [1] (21 DAA, 16 gae/ha); 30% in assay [1] (21 DAA, 17.5 gae/ha); 45% in assay [1] (21 DAA, 32 gae/ha); 40% in assay [3] (4.38 gae/ha). Further, the “Visual Weed Control Obs” value was determined as 10% in assay [1] (22 DAA, 8 gae/ha); 10% in assay [1] (22 DAA, 16 gae/ha); 35% in assay [1] (22 DAA, 32 gae/ha). Also, the “Weed Control MATCH Obs” value in assay [2] (Table 54, after 20-22 days, 8.75 gai/ha alone) came to 20%; in assay [2] (Table 55, after 20-22 days, 8.75 gai/ha alone), 20%; in assay [2] (Table 56, after 20-22 days, 8.75 gai/ha alone), 20%; in assay [2] (Table 57, after 20-22 days, 8.75 gai/ha Compound A Benzyl Ester alone) it was 20%; in assay [2] (Table 59 (cereal), after 20-22 days, 8.75 gai/ha alone), 20%.
Take `COCC(=O)OC(c1ncccc1S(=O)(=O)NC(=O)Nc1nc(OC)cc(OC)n1)C(C)F` (centres unmarked) [Flucetosulfuron, 1-[3-[[[[(4,6-dimethoxy-2-pyrimidinyl)amino]carbonyl]amino]sulfonyl]-2-pyridinyl]-2-fluoropropyl 2-methoxyacetate]: the “Visual Weed Control (%) Obs” value was 20% in assay [1] (21 DAA, 0.05 gai/ha); 20% in assay [1] (21 DAA, 0.2 gai/ha); 90% in assay [1] (22 DAA, 5 gai/ha); 90% in assay [1] (22 DAA, 10 gai/ha); 95% in assay [3] (0.05 gai/ha); 50% in assay [3] (0.1 gai/ha). Also, in assay [3] (0.2 gai/ha), the “Visual Weed Control (%) Obs” value is listed as 30%.
For the compound `COC(=O)c1ccccc1S(=O)(=O)NC(=O)Nc1nc(C)nc(OC)n1` [Metsulfuron-methyl, methyl 2-[[[[(4-methoxy-6-methyl-1,3,5-triazin-2-yl)amino]carbonyl]amino]sulfonyl]benzoate, reference compound], the “Weed Control MATCH Obs” value in assay [2] (Table 56, after 20-22 days, 1.1 gai/ha alone) worked out at 89%.

The values above are taken from patent US8871681B2, “Herbicidal compositions comprising 4-amino-3-chloro-5-fluoro-6-(4-chloro-2-fluoro-3-methoxyphenyl) pyridine-2-carboxylic acid or a derivative thereof and certain sulfonylureas” (Dow AgroSciences LLC, priority 2012, dated 2014).
